Data taken from PubChem BioAssay (NCI).
Values joined by “and” are separate entries in the source; they are usually repeats but may differ in a detail not shown here. Identical values can stand only once.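 A five-concentration, 48-hour dose response in 96-well plates underlies each endpoint, interpolated linearly between surrounding concentrations. The concentration for 50% growth inhibition is given as GI50. TGI: concentration producing complete growth inhibition.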

Key:
Assay in all cases: inhibition of tumour cell growth, NCI panel, 48 h
[1] = tested on: CCRF-CEM leukemia
[2] = tested on: HCC-2998 colon
[3] = tested on: HS 578T breast
[4] = tested on: IGROV1 ovarian
[5] = tested on: MOLT-4 leukemia
[6] = tested on: NCI-H23 lung
[7] = tested on: NCI-H460 lung
[8] = tested on: OVCAR-3 ovarian
[9] = tested on: SF-295 CNS
[10] = tested on: UACC-62 melanoma

Structure (SMILES) | GI50 [1] | TGI [1] | GI50 [2] | TGI [2] | GI50 [3] | TGI [3] | GI50 [4] | TGI [4] | GI50 [5] | TGI [5] | GI50 [6] | TGI [6] | GI50 [7] | TGI [7] | GI50 [8] | TGI [8] | GI50 [9] | TGI [9] | GI50 [10] | TGI [10]
C[C@@H]1COCCN1c1cc(C2(S(C)(=N)=O)CC2)nc(-c2ccnc3[nH]ccc23)n1 (stereo partly specified) | 1.55 µM | > 100 µM | 2.39 µM | > 100 µM | 2.77 µM | 22.1 µM | 3.63 µM | 63.1 µM | 2.35 µM | 49.4 µM | 2.62 µM | 34.3 µM | 1.07 µM | 20.6 µM | 5.76 µM | 38.9 µM | 1.66 µM | 19.8 µM | 2.01 µM | 11 µM
CC[C@H](CC#N)OC(=O)N[C@@H](C)c1cccc(NC(=O)Nc2ccc(-c3cnco3)c(OC)c2)c1 | < 0.023 µM | 35.8 µM | 0.142 µM | 51.6 µM | 1.16 µM | > 51.6 µM | 0.0514 µM | 24.2 µM | 0.0403 µM | 13.8 µM | 0.16 µM | 43.2 µM | 0.0328 µM | 17.1 µM | 0.0894 µM | 45 µM | 0.0532 µM | 13 µM | 0.141 µM | 24.5 µM
CN(C)C(=S)N=Nc1c(O)[nH]c2ccccc12 | 0.298 µM | – | 1.54 µM | 17.2 µM | 2.95 µM | 67.6 µM | 0.508 µM | 7.39 µM | 0.619 µM | > 49.7 µM | 0.656 µM | 25 µM | 0.374 µM | 2.49 µM | 0.261 µM | 1.18 µM | 0.315 µM | 14.2 µM | 0.578 µM | 4.56 µM
Nc1cc(N)c(N)cc1N | 3.43 µM | 27.5 µM | 13.4 µM | 27.9 µM | 2.01 µM | 5.37 µM | 2.17 µM | 4.83 µM | 3.14 µM | 28.6 µM | 1.67 µM | 4.1 µM | 10.8 µM | 26.2 µM | 1.97 µM | 4.46 µM | 1.7 µM | 3.31 µM | 1.55 µM | 2.97 µM
CCCCN(Cc1ccc(F)cc1)c1ccc(CO)c(Cl)c1 | 15.8 µM | 38.1 µM | 12.4 µM | 26.7 µM | 17.7 µM | 40.9 µM | 0.677 µM | 3.49 µM | 17.8 µM | 43.1 µM | 11.8 µM | 26.3 µM | 2.46 µM | 13.4 µM | 3.74 µM | 12.9 µM | 3.96 µM | 17.2 µM | 0.903 µM | 4.84 µM
CCOP(=O)(OCC)C(NC(c1ccccc1)c1ccccc1)c1cccc2ccccc12 (stereo unspecified) | 5.86 µM | > 100 µM | 4.55 µM | 17.2 µM | 29.9 µM | 67.3 µM | 23.6 µM | > 100 µM | 4.17 µM | > 100 µM | 13.3 µM | 29.5 µM | 5.05 µM | 25.8 µM | 4.22 µM | 12.5 µM | 6.76 µM | 65.7 µM | 2.58 µM | 9.1 µM
CC(=O)O[C@@H]1CC2C(C)(C)CCCC2(C)C2=C1C(=O)C(C(C)C)=CC2=O (stereo partly specified) | 2.79 µM | > 100 µM | 0.405 µM | 1.62 µM | 1.79 µM | > 100 µM | 1.49 µM | 4.87 µM | 1.13 µM | > 100 µM | 1.87 µM | 7.86 µM | 0.423 µM | 1.9 µM | 1.51 µM | 3.36 µM | 1.77 µM | 3.61 µM | 0.458 µM | 2.07 µM
CCOc1ccc(NCc2cc(OC)c(OC)c(OC)c2)cc1 | 0.759 µM and 1.7 µM | > 74.9 µM | – | 98.7 µM and > 50 µM | 0.823 µM | > 100 µM | – | > 84 µM | – | > 100 µM | – | 31.4 µM and 39.3 µM | – | > 100 µM and 58 µM | – | 1.65 µM and 2.22 µM | – | 3.44 µM | – | > 100 µM
COc1cc(-c2cn(-c3ccc(Cl)cc3)c(C)c2C(=O)C(F)(F)F)cc(OC)c1OC | 16.1 µM | > 100 µM | > 100 µM | > 100 µM | > 100 µM | > 100 µM | > 100 µM | > 100 µM | 6.01 µM | > 100 µM | 60.5 µM | > 100 µM | 33.4 µM | > 100 µM | > 100 µM | > 100 µM | > 100 µM | > 100 µM | > 100 µM | > 100 µM
CCCCCCCCCCCCCC(=O)CBr | – | 2.6 µM | – | 32.1 µM | – | 52.4 µM | – | 15.1 µM | – | 2.9 µM | – | 23 µM | – | 35.3 µM | – | 39.9 µM | – | 29.3 µM | – | 17.9 µM
Cc1cc2c3ccccc3n(C)c2c2c1C(=O)C=CC2=O | – | > 36 µM | – | 39.8 µM | – | 55.2 µM | – | 36.8 µM | – | 46.3 µM | – | 27.4 µM | – | 33.2 µM | – | 28.3 µM | – | 54.3 µM | – | 32.4 µM
